Assay results: US20240423998A1, “METHODS OF TREATING AGITATION AND OTHER DEMENTIA-ASSOCIATED BEHAVIORAL SYMPTOMS” (WOOLSEY PHARMACEUTICALS, INC., priority 2021, published 2024)
Where a name gives a salt, the structure may show the parent alone.

What was measured:
[1] = in vivo, metabolite; cited from earlier work
[2] = system: agitation in patients with Alzheimer's Dementia (AD); assay: Clinical trial of oral fasudil in reducing agitation in patients with Alzheimer's Dementia (CMAI score); assay type: in vivo, human
Protocol: All the patients were treated for 6 weeks with 90 mg per day (30 mg TID) and a subset of patients was treated an additional 6 weeks with 180 mg per day (60 mg TID). […] A variety of assessments were conducted at baseline and at the end of treatment, including the NPI-Q and the CMAI.
Two baseline thresholds were set, and two analyses were done based on the two groupings that resulted. One threshold was based on the agitation/aggression domain of the NPI-Q and the other based on the CMAI score.
The first selection was based on NPI-Q score of ≥4.
The second selection required a baseline CMAI score of ≥20 and this yielded a 13-patient subgroup, having a mean baseline CMAI score of 34.4. […] All the patients selected using the NPI-Q agitation/aggression domain score of ≥4 were also included in this subgroup.
The analysis looked at the CMAI score prior to treatment and compared it to the last day of treatment (6 weeks for the 10 patients on the low dose and 12 weeks for the 3 patients on the high dose).

mice = conditions: six-month old mice, 10 mg/kg oral gavage once a day for 30 days; reduction indicates anxiety; cited from earlier work

O=S(=O)(c1cccc2c(O)nccc12)N1CCCNCC1 [M3]
half-life [1]: about 8 hours

O=S(=O)(c1cccc2cnccc12)N1CCCNCC1 [fasudil HCl hemihydrate, Hexahydro-1-(5-isoquinolinesulfonyl)-1H-1,4-diazepine monohydrochloride hemihydrate]
tolerability of treatment regimens ([2]; nineteen AD patients, 90 mg per day (30 mg TID) 6 weeks and 180 mg per day (60 mg TID) additional 6 weeks): well tolerated

O=S(=O)(c1cccc2cnccc12)N1CCCNCC1 [fasudil]
difference in mean CMAI score, baseline vs end of treatment ([2]; six patients with baseline NPI-Q score >=4, 90 mg per day (30 mg TID) for 6 weeks): 22.3 | mean CMAI score at the end of treatment ([2]; six patients with baseline NPI-Q score >=4, 90 mg per day (30 mg TID) for 6 weeks, mean baseline CMAI 45.3): 23.0 | difference in mean CMAI score, prior to treatment vs end of treatment ([2]; thirteen patients with baseline CMAI score >=20, 6 weeks at 90 mg per day (10 patients) or additional 6 weeks at 180 mg per day (3 patients)): 12.6 | mean CMAI score at the end of treatment ([2]; thirteen patients with baseline CMAI score >=20, 6 weeks at 90 mg per day (10 patients) or additional 6 weeks at 180 mg per day (3 patients), mean baseline CMAI 34.4): 21.8 | amount of time spent in the open arms of the maze (mice): significantly reduced
